Data on one molecule can be found in PMC9578143, “Small-Molecule Ebselen Binds to YTHDF Proteins Interfering with the Recognition of N^6-Methyladenosine-Modified RNAs” (ACS Pharmacology & Translational Science, 2022).

Entries after “also recorded” stand apart in the source; their conditions may differ.

The test system of assay [1] is m6A-mRNAs (CREBBP, YTHDF2, GATA2, HNRNPF) in PC-3 cells. Kind of assay: m6A mRNA stability measurement with actinomycin D. The format is cell-based, human. As to conditions: 4 h co-treatment with actinomycin D, versus DMSO, listed as ebselen. Here is the method:
PC-3 cells were plated on a six-well dish. At 70–80% confluency, cells were treated with […] actinomycin D or vehicle (DMSO) to inhibit transcription in combination with 50 μM ebselen for 4 h before collection. As a control, cells were treated with actinomycin D or vehicle (DMSO) for 4 h. Total RNA was isolated from cells using TRIzol according to the manufacturer’s instructions. For each condition, the same amount of total RNA was reverse-transcribed to cDNA (2 μg) using the SuperScript IV First-Strand kit. Oligo-dT primers were used during the cDNA synthesis step. This allowed us to selectively convert to cDNA the amount of intact RNA still present in cells upon actinomycin D treatment while avoiding the conversion of fragmented RNA to cDNA. qRT-PCR experiments were performed in duplicates and normalized on a stable mRNA, GAPDH.

The next assay concerns the target T1, YTHDF1 YTH domain (Homo sapiens, UniProt Q9BYJ9).
T1 construct: The human YTHDF1 YTH domain (amino acids 365–554, PDB: 4RCJ); host or cells: E. coli BL21(DE3)
T1 sequence (Q9BYJ9 365-554): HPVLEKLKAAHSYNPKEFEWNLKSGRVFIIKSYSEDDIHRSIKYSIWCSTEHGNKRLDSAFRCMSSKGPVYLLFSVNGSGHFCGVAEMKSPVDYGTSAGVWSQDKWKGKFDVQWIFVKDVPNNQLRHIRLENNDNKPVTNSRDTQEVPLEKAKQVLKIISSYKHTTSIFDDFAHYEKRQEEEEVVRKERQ
The experiment in a line: NMR titration (2D 1H-15N HSQC) in reducing conditions. The format is binding. As to conditions: 10 mM β-mercaptoethanol, 100 μM protein. Here is the method: To further investigate the ligand–protein interaction in reversible conditions, the resonances of the YTHDF1 YTH domain were assigned. The protein sample was titrated with ebselen, in the presence of β-mercaptoethanol (10 mM) as a reducing agent, to prevent the covalent bond formation. The titration was monitored by NMR to map at atomic resolution the ligand-binding site on the protein surface. Increasing amounts of the ligand (12.5, 25, 50, 100, and 200 μM) were added to the protein solution during the NMR titration, and 2D ^1H–^15N heteronuclear single quantum coherence (HSQC) spectra were acquired.
The interaction of the protein with ebselen was investigated by solution NMR. 2D ^1H–^15N HSQC spectra were acquired on a spectrometer operating at 950 MHz and 298 K, on the free protein (100 μM in 20 mM Tris buffer, pH 7.5, 150 mM NaCl, 250 mM LiCl, 10 mM 2-mercaptoethanol, 0.5 mM EDTA, 0.1% NaN3, and protease inhibitors) and after the addition of increasing aliquots of a solution of the ligand in DMSO-d6 to reach the final concentrations of 12.5, 25, 50, 100, and 200 μM.

In assay [2] the target is T2, YTH domain of YTHDF1 / biotinylated RNA probe 5′-Bi-CCGAm6ACUGUC-3′ (Homo sapiens, UniProt Q9BYJ9).
T2 construct: The human YTHDF1 YTH domain (amino acids 365–554, PDB: 4RCJ); host or cells: E. coli BL21(DE3)
T2 sequence (Q9BYJ9 365-554): T1 sequence (Q9BYJ9 365-554)
The experiment in a line: AlphaScreen competitive assay, saturation binding. To be noted: 50 nM RNA, 50 nM protein, compound 0–100 μM. The procedure:
The Amplified Luminescent Proximity Homogeneous Assay (ALPHA Assay) was performed in white 384-well Optiplates (PerkinElmer) in a final volume of 20 μL, and it was first optimized by titrating both the protein and the biotinylated RNA probe (5′-Bi-CCGAm6ACUGUC-3′, Dharmacon) to find the appropriate right protein/RNA ratio before the saturation of the detection signal. […] Anti-His acceptor beads (PerkinElmer) (20 μg/mL final concentration) and streptavidin donor beads (20 μg/mL final concentration) were added and the reaction was incubated in the dark at room temperature for 1 h to reach equilibrium. Light signals were detected with an Enspire Multimode Plate reader (PerkinElmer). […] The IC50 of ebselen was determined from the nonlinear regression fits of the data.
For orientation: Bead proximity is the source of the signal in Alpha formats.

Assay [3] deals with T3, YTHDF1 domain (Homo sapiens, UniProt Q9BYJ9).
T3 construct: The human YTHDF1 YTH domain (amino acids 365–554, PDB: 4RCJ); host or cells: E. coli BL21(DE3)
T3 sequence (Q9BYJ9 365-554): T1 sequence (Q9BYJ9 365-554)
Kind of assay: High-throughput screen, tryptophan quenching, Z-score. It counts as binding. As to conditions: 5 μM protein, compounds at 10 μM. The procedure:
A Z factor of 0.53 was obtained. The high-throughput screen was performed by using an automatic liquid handling (Freedom EVO, Tecan), filling black 384-well plates with 15 μL of 5 μM protein in 20 mM Tris (pH 7.5), 150 mM NaCl, and 10% glycerol, and then by adding the library of compounds at a final concentration of 10 μM. Fluorescence was measured immediately after compound addition. The library used was the Spectrum Collection (Microsource Discovery System, Inc.), composed of 2560 compounds, of whom 60% are clinically used drugs, 25% natural products, and 15% other bioactive molecules. The Z-score was calculated as (X – μp)/σp, where X is the fluorescence intensity of the protein. Candidate molecules were considered all of the ones that were under the threshold of Z = −3, while all of the ones over that value were discarded.

The target of assay [4] is T3, YTHDF1 domain. The experiment in a line: Dynamic mass redistribution (DMR), label-free. As to conditions: immobilized YTHDF1 domain, binding at equilibrium. The procedure: The protein was immobilized in a final volume of 15 μL/well of a 50 μg/mL solution in 20 mM sodium acetate buffer, pH 6, onto the surface of label-free microplates by amine-coupling chemistry. Different concentrations of ebselen (300 nM to 50 μM) were added to the plate and the mass of the molecular complex was measured every minute for 1 h. […]
probe with the YTH domain of YTHDF1 calculated with the DMR. rYTH was immobilized to the wells with amino-coupled chemistry and different concentrations of RNA were added to the plate.
Measurements were performed before adding the RNA, in order to define a baseline, and after the addition. Final response (pm) was obtained by subtracting to the last measurement the baseline.
Signal for each well was obtained by subtracting the signal of a reference area with the protein coated to an uncoated one. Data were fitted according to a four-parameter nonlinear regression […]
(§1) (1 picture or pasted object on this page, not shown here)

The subject of assay [5] is YTHDF1-3, ALKBH5 and METTL3 in PC-3 cells. The experiment in a line: Western blot of the epitranscriptome apparatus. To be noted: PC-3 cells, 24, 48 and 72 h, 10, 25, 50 μM; listed as ebselen. It counts as cell-based, human. Here is the method:
Supplementary Figure 4. Protein level of the epitranscriptome apparatus and m6A level in PC-3 cells. (A) Representative western blot of YTHDF1-3, ALKBH5 and METTL3 in PC-3 cells after 24, 48 and 72 hours of ebselen treatment at three doses, 10, 25, 50 µM. (B) Quantification of the relative changes of YTHDF1-3, ALKBH5 and METTL3 in PC-3 cells after 24, 48 and 72 hours of ebselen treatment at three doses, 10, 25, 50 µM. […] Three biological replicates were performed. (C) Quantitative real-time PCR of YTHDF1-3, ALKBH5 and METTL3 in PC-3 cells after 24 hours of ebselen treatment at 10 µM.
Supplementary Figure 5. Caption: 2F o-Fc map (blue) is contoured at 1s for Ebselen and Cys412 side chain. The selenium anomalous map is contoured at 3.5σ and shown in orange.
as §1
In general terms: In western blotting, separated proteins are transferred to a membrane and probed.

Usually IC50 stands for the concentration at which inhibition is half-maximal. A higher IC50 goes with weaker potency in that assay. By EC50 is commonly meant the concentration giving half of the maximal effect. Take `O=c1c2ccccc2[se]n1-c1ccccc1` [Compound 1, 2-phenyl-1,2-benzisoselenazol-3(2H)-one]: the “Stability of methylated mRNAs (in words)” value in assay [1] is given as “increase in mRNA stability; also recorded: increased the stability of methylated genes”. For the same molecule, at YTHDF1 YTH domain, the “Affinity constant judged from NMR titration (in words)” value was “low micromolar range”. In addition, in assay [2], the half-inhibitory concentration (IC50) worked out at 3.565 ± 0.009 µM. The “Mean(FI.z-score)” value at YTHDF1 domain [3] is reported as -3.819. The molecule further returned a half-maximal effective concentration (EC50) at YTHDF1 domain [4] of 3.22 µM. Besides, the “Expression level of the proteins of the epitranscriptome apparatus (in words)” value in assay [5] was “No changes were observed”.
